Experimental data reported in patent US20030091555A1, “Bactericidal composition containing peptide and chelating agent” (NATIONAL AGRICULTURAL RESEARCH ORGANIZATION, priority 2001, published 2003).
Converted amounts (≈) assume the structure as drawn.

Experiments:
V. parahaemolyticus = conditions: high concentration (10 mM); cited from earlier work
E. coli = conditions: high concentration (10 mM); cited from earlier work
[1] = as food additive; cited from earlier work
[2] = system: Salmonella typhimurium JCM 6977; assay: MIC/MBC by viable count after 1 day cultivation; format: cell-based; conditions: for MBC: Salmonella enterica; for synergistic effects with thionin, compared with EDTA-2Na: with alpha-type thionin of wheat 10 μg/mL
Method: (§1) Bacillus cereus was inoculated into a sensitive measurement medium (manufactured by Nissui Pharmaceutical Co., Ltd., Tokyo, Japan), and other bacteria such as food poisoning bacteria were inoculated into an LB medium (1% polypeptone, 0.5% yeast extract, 0.5% sodium chloride, pH 7.2) and incubated at 37° C. for 1 day.
(§2) Then, after adding predetermined amounts of thionin and EDTA, the bacteria were inoculated so that the concentration of bacteria was about 1×10^6 cells/mL. After cultivating the bacteria for 1 day for other bacteria, the viable count was measured by a method of diluted plate culture. The concentration in which the viable count was decreased to 1/100 or less was defined as minimum bactericidal concentration (MBC) and the concentration in which the viable count was not increased was defined as minimum inhibitory concentration (MIC). The results obtained are shown in Tables 1, 2 and 3, as well as in FIG. 1.

[3] = system: Escherichia coli 06 JCM 5491; assay: MIC/MBC by viable count after 1 day cultivation; format: cell-based; conditions: for MBC: Escherichia coli; for synergistic effects with thionin, compared with EDTA-2Na: with alpha-type thionin of wheat 10 μg/mL
Method: as §1, §2

[4] = system: test bacteria (food poisoning bacteria); assay: MIC/MBC, text summary over the test bacteria; format: cell-based; conditions: for MBC: added alone
Method: as §1, §2

[5] = system: Escherichia coli 01:K1:H7 JCM 1649; assay: MIC/MBC by viable count after 1 day cultivation; format: cell-based; conditions: LB medium, 37° C.
Method: as §1, §2

Bacillus cereus JCM 2152 = assay: MIC/MBC by viable count after 1 day cultivation; format: cell-based; conditions: sensitive measurement medium, 37° C.
Method: as §1, §2

[6] = system: Salmonella enteritidis IFO 3313; assay: MIC/MBC by viable count after 1 day cultivation; format: cell-based; conditions: LB medium, 37° C.
Method: as §1, §2

[7] = system: Vibrio parahaemolyticus IFO 12711; assay: MIC/MBC by viable count after 1 day cultivation; format: cell-based; conditions: LB medium, 37° C.
Method: as §1, §2

[8] = system: Bacillus cereus IFO 15305; assay: MIC/MBC by viable count after 1 day cultivation; format: cell-based; conditions: sensitive measurement medium, 37° C.
Method: as §1, §2

guinea pig = conditions: administered once with 103 to 229 mg/kg body weight, observed for 7 days; cited from earlier work
trypsin = molecular target: T1, trypsin (Bos taurus, UniProt P00760); conditions: cited from earlier work
T1 construct: gene PRSS1
T1 sequence (P00760 24-246): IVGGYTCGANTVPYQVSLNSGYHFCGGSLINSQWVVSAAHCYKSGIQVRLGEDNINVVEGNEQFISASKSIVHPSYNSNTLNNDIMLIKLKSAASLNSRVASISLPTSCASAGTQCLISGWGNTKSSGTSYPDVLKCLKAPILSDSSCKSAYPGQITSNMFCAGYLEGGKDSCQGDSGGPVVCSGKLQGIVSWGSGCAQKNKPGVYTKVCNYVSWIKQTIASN

[9] = EDTA-2Na added alone, LB medium, 37° C., 1 day
[10] = thionin added alone, LB medium, 37° C., 1 day

O=C(O)CN(CCN(CC(=O)O)CC(=O)O)CC(=O)O [EDTA, ethylenediaminetetraacetic acid]
antibacterial activity (V. parahaemolyticus): shows antibacterial activity
antibacterial activity (E. coli): shows antibacterial activity
ADI (Acceptable Daily Intake) [1]: 2.5 mg/kg body weight
MBC ([2]; Thionin (10 μg/mL) +: with alpha-type thionin of wheat): 0.0001 µM (≈ 0.0292 ng/mL)
MBC ([2]; Thionin (10 μg/mL) −: without alpha-type thionin of wheat): 0.005 µM (≈ 1.46 ng/mL)
synergistic effects with thionin, compared with EDTA-2Na [2]: identical to or higher than that of EDTA-2Na
MBC ([3]; JCM5491, Thionin (10 μg/mL) +: with alpha-type thionin of wheat): 0.001 µM (≈ 0.292 ng/mL)
MBC ([3]; JCM5491, Thionin (10 μg/mL) −: without alpha-type thionin of wheat): 0.005 µM (≈ 1.46 ng/mL)
synergistic effects with thionin, compared with EDTA-2Na [3]: identical to or higher than that of EDTA-2Na

O=C([O-])CN(CCN(CC(=O)[O-])CC(=O)O)CC(=O)O.[Na+].[Na+] [EDTA-2Na, EDTA disodium]
MBC of EDTA-2Na as compared with the addition of EDTA-2Na alone ([4]; 10 μg/mL alpha-type thionin of wheat added simultaneously, food poisoning bacteria): decreased
MBC ([4]; Salmonella sp. and E. coli): ≥ 10000 µM
MBC ([4]; other bacteria (not Salmonella sp., E. coli)): ≤ 1000 µM
MBC EDTA-2Na ([5]; EDTA-2Na added alone): 50000 µM
MBC EDTA-2Na (Bacillus cereus JCM 2152; EDTA-2Na added alone): 500 µM
MBC EDTA-2Na [2, 9]: 20000 µM
MBC EDTA-2Na ([6]; EDTA-2Na added alone): 50< mM
MBC EDTA-2Na ([7]; EDTA-2Na added alone): 1000 µM
MBC EDTA-2Na ([8]; EDTA-2Na added alone): 200 µM
MBC EDTA-2Na [3, 9]: 10000 µM

O=C([O-])CN(CCN(CC(=O)[O-])CC(=O)[O-])CC(=O)[O-].[Na+].[Na+].[Na+].[Na+] [EDTA-4Na, EDTA-tetrasodium salt]
synergistic effects with thionin, compared with EDTA-2Na [2]: identical to or higher than that of EDTA-2Na
synergistic effects with thionin, compared with EDTA-2Na [3]: identical to or higher than that of EDTA-2Na

thionin [reference compound]
abnormality after administration (guinea pig): no abnormality was observed
MIC Thionin ([5]; thionin added alone): 100< μg/mL
MIC Thionin (Bacillus cereus JCM 2152; thionin added alone): 100 mg/L
MIC Thionin [2, 10]: 30 mg/L
MIC Thionin ([6]; thionin added alone): 100< μg/mL
MIC Thionin ([7]; thionin added alone): 20 mg/L
MIC Thionin ([8]; thionin added alone): 100< μg/mL
MIC Thionin [3, 10]: 100 mg/L
decomposition by a digestive enzyme (trypsin): rapid decomposition
